Blank lines part the entries; values can stand above or below the compound they belong to.
Tests used:
[1] = target: hFAP (Homo sapiens (Human), UniProt Q12884); experiment: Saturation binding on isolated HEK-293.hFAP cell membranes; set-up: Bmax: unit not given here; conditions: 37° C.
Procedure: The cells were homogenized using Ultra-Turrax, and the homogenized suspension was centrifuged at 500×g for 10 min at 4° C. The supernatant was collected in centrifuge tubes (Beckman Coulter Inc., Brea, CA, USA). This procedure was then repeated 5 times. The collected supernatant was centrifuged in an ultra-centrifuge (Beckman) at 4° C. for 55 min at 49,000×g. Then, the pellet was re-suspended in 10 mM ice-cold HEPES buffer (pH 7.5), aliquoted, and stored at −80° C. The protein concentration of those membrane suspensions was determined by the Bradford method, BSA as the standard.
Each assay tube contained 170 μL of binding buffer (20 mM HEPES, pH 7.4, containing 4 mM μgCl2, 0.2% BSA, 20 μg/L bacitracin, 20 μg/L PMSF and 200,000 KIU/L aprotinin). The incubation was initiated by adding 30 μL of radioligand solution at 10 times the final concentration and 100 μL of cell membrane suspension to yield 10 μg of protein per well. For the determination of the non-specific binding, 140 μL of the above binding buffer was added along with 30 μL of FAPI-46 to obtain (0.1 mM). Bound fractions were plotted versus the corresponding radioligand concentration at equilibrium. The dissociation constant (KD) and maximal binding capacity (Bmax) values were calculated using GraphPad Software Inc., Prism 7, San Diego, CA, USA (Table 33 and FIG. 21).

[2] = tested on: HT-1080.hFAP and HT-1080.wt xenografts; experiment: Quantitative biodistribution in HT-1080.hFAP and HT-1080.wt xenografted mice; type: in vivo; conditions: for Biodistribution HT-1080.wt: FAP-negative tumor; for Biodistribution HT-1080.hFAP: FAP-positive tumor
Procedure: The tumors were allowed to grow to an average volume of 100-200 mm3.
Biodistribution Studies: The xenografted mice were randomized (n=5 per group) and injected intravenously via the tail vein with the ^61Cu-labeled radioligands (100 μL, […], 0.8-1MBq). Mice were euthanized 1h and 4h pi. by CO2 asphyxiation. Organs of interest and blood were collected, rinsed of excess blood, blotted dry, weighed, and counted in a […]. The samples were counted against a suitably diluted aliquot of the injected solution as the standard and the results are expressed as the percentage of the injected activity per gram of tissue (0% I.A./g)+SD.

[3] = tested on: HT-1080.hFAP cells; experiment: In vitro cellular uptake (cell surface and internalized fractions) in HT-1080.hFAP cells; type: cell-based, human
Procedure: (§1) The cellular uptake was studied in vitro using intact cells seeded in 6-well plates overnight. On the day of the experiment, the cells were washed and incubated with each of the exemplified [^61Cu]Cu-radiotracer at different time points, either alone or in the presence of a blocking agent to distinguish between specific and non-specific uptake. At each investigated time point, the medium containing the unbound (free) radiotracer was removed, followed by two washing steps with ice-cold phosphate-buffered saline. The cells were then treated 2×5 min with ice-cold glycine solution (0.05 M, pH 2.8) to detach the cell surface-bound radiotracer (acid released). Afterwards, the cells containing the internalized radiotracer were detached with 1 M NaOH at 37° C. and collected for measurement. The amount of specific cell surface-bound and internalized radiotracer is expressed as percentage of the total applied activity, after subtracting the non-specific values.
as §1, with “^61Cu-labeled conjugate” for “of the exemplified [^61Cu]Cu-radiotracer”
The cells were then preconditioned in 360 μL of assay medium (MEM medium without supplements) at 37° C. for 60 min. 40 μL of a 2 nM solution of ^61Cu-labeled radioligand was added and the cells were incubated at 37° C. The cellular uptake was interrupted at different time points (15 min, 1 hour and 4 hours), by washing twice with ice-cold PBS. Cell surface-bound radioligand was obtained by washing cells twice with ice-cold glycine buffer (pH 2.8), followed by a collection of the internalized fraction with 1 M NaOH. The activity in each fraction was measured in a γ-counter (Cobra II).

[4] = Remaining PET activity in the mouse body 4h p.i.; type: in vivo; conditions: mice
Procedure: PET/CT Imaging: Mice bearing FAP-positive and FAP-negative xenografts were injected intravenously with ^61Cu-labeled radioligands of the present disclosure or ^61Cu-NODAGA-FAPI-46 (100 μL/[…]/6-12 MBq). […] The mice were euthanized by CO2 at 4 hours p.i., and static PET scans were acquired for 30 min.
Remaining PET activity in the mouse body 4h p.i. prior to the 4h scan was determined (Table 36).

[5] = 1 h p.i., HT-1080.hFAP and HT-1080.wt xenografts
[6] = 4 h p.i., HT-1080.hFAP and HT-1080.wt xenografts
[7] = HT-1080.hFAP and HT-1080.wt xenografts

Chain of hFAP (Q12884 whole entry): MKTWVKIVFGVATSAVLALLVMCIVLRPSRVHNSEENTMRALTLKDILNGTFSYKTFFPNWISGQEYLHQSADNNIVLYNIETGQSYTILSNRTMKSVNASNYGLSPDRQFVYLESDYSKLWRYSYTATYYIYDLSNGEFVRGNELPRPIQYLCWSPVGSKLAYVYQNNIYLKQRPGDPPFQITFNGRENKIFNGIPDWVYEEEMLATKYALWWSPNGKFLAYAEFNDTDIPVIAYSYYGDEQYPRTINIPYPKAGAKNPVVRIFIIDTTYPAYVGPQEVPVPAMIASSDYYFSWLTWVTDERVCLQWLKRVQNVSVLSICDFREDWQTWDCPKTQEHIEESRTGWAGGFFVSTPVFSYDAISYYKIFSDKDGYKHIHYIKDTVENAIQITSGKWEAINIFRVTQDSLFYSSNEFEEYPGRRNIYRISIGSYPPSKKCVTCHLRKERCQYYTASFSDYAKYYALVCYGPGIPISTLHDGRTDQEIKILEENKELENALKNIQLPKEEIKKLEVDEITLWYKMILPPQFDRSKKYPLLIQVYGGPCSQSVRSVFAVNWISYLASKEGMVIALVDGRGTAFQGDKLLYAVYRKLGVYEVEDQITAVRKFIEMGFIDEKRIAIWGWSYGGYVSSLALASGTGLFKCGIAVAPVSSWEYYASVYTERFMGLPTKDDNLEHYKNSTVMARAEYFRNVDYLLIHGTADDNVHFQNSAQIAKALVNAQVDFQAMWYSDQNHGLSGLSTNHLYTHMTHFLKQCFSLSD

Bmax [1]: 7.3-8.1
Biodistribution Heart ([2]; 1 hour p.i.): 0.7 ± 0.1 % I.A./g
Biodistribution Intestine ([2]; 1 hour p.i.): 0.8 ± 0.2 % I.A./g
Biodistribution Liver ([2]; 1 hour p.i.): 0.9 ± 0.1 % I.A./g
Biodistribution Spleen ([2]; 1 hour p.i.): 0.5 ± 0.1 % I.A./g
Biodistribution Stomach ([2]; 1 hour p.i.): 0.8 ± 0.1 % I.A./g
Biodistribution Adrenal [2, 5]: 2.1 ± 0.6 % IA/g
Biodistribution Blood [2, 5]: 1.7 ± 0.1 % IA/g
Biodistribution Femur [2, 5]: 5.4 ± 1.2 % IA/g
Biodistribution HT1080.hFAP (FAP-positive tumor) [2, 5]: 7.9 ± 0.9 % IA/g
Biodistribution HT1080.wt (FAP-negative tumor) [2, 5]: 4.0 ± 2.2 % IA/g
Biodistribution Heart [2, 5]: 0.7 ± 0.1 % IA/g
Biodistribution Intestine [2, 5]: 0.8 ± 0.2 % IA/g
Biodistribution Kidney [2, 5]: 1.6 ± 0.3 % IA/g
Biodistribution Liver [2, 5]: 0.9 ± 0.1 % IA/g
Biodistribution Lung [2, 5]: 1.2 ± 0.1 % IA/g
Biodistribution Muscle [2, 5]: 2.1 ± 0.8 % IA/g
Biodistribution Pancreas [2, 5]: 1.6 ± 0.2 % IA/g
Biodistribution Spleen [2, 5]: 0.5 ± 0.1 % IA/g
Biodistribution Stomach [2, 5]: 0.8 ± 0.1 % IA/g
Biodistribution Blood ([2]; 4 hours p.i.): 0.9 ± 0.0 % I.A./g
Biodistribution Heart ([2]; 4 hours p.i.): 0.5 ± 0.0 % I.A./g
Biodistribution Intestine ([2]; 4 hours p.i.): 0.4 ± 0.1 % I.A./g
Biodistribution Kidneys ([2]; 4 hours p.i.): 1.0 ± 0.2 % I.A./g
Biodistribution Liver ([2]; 4 hours p.i.): 0.7 ± 0.1 % I.A./g
Biodistribution Lung ([2]; 4 hours p.i.): 0.7 ± 0.1 % I.A./g
Biodistribution Pancreas ([2]; 4 hours p.i.): 0.9 ± 0.0 % I.A./g
Biodistribution Spleen ([2]; 4 hours p.i.): 0.3 ± 0.0 % I.A./g
Biodistribution Stomach ([2]; 4 hours p.i.): 0.5 ± 0.0 % I.A./g
Biodistribution Adrenal [2, 6]: 1.4 ± 0.3 % IA/g
Biodistribution Blood [2, 6]: 0.9 ± 0.0 % IA/g
Biodistribution Femur [2, 6]: 3.7 ± 0.3 % IA/g
Biodistribution HT1080.hFAP (FAP-positive tumor) [2, 6]: 6.4 ± 2.0 % IA/g
Biodistribution HT1080.wt (FAP-negative tumor) [2, 6]: 1.8 ± 0.3 % IA/g
Biodistribution Heart [2, 6]: 0.5 ± 0.0 % IA/g
Biodistribution Intestine [2, 6]: 0.4 ± 0.1 % IA/g
Biodistribution Kidney [2, 6]: 1.0 ± 0.2 % IA/g
Biodistribution Liver [2, 6]: 0.7 ± 0.1 % IA/g
Biodistribution Lung [2, 6]: 0.7 ± 0.1 % IA/g
Biodistribution Muscle [2, 6]: 1.1 ± 0.1 % IA/g
Biodistribution Pancreas [2, 6]: 0.9 ± 0.0 % IA/g
Biodistribution Spleen [2, 6]: 0.3 ± 0.0 % IA/g
Biodistribution Stomach [2, 6]: 0.5 ± 0.0 % IA/g
Biodistribution HT-1080.wt ([2]; 1 hour p.i.): 4.0 ± 2.2 % I.A./g
Biodistribution HT-1080.wt ([2]; 4 hours p.i.): 1.8 ± 0.3 % I.A./g
Biodistribution HT-1080.hFAP ([2]; 1 hour p.i.): 7.9 ± 0.9 % I.A./g
Biodistribution HT-1080.hFAP ([2]; 4 hours p.i.): 6.4 ± 2.0 % I.A./g
Structure (SMILES): N#C[C@@H]1CC(F)(F)CN1C(=O)CNC(=O)c1ccnc2ccc(NC(=O)CCC(=O)N3CCN(C(=O)CC[C@H](C(=O)O)N4CCN5CCN(CC4)CC(=O)[O][61Cu][O]C(=O)C5)CC3)cc12 [[^61Cu]Cu-NODAGA-F3]
accumulation in tumor and target-positive tissues [2, 7]: high accumulation in FAP-positive (HT-1080.hFAP) tumor and murine-FAP-positive tissues
Cell surface fraction ([3]; 15 min, HT-1080.hFAP cells, specific uptake (minus HT-1080.wt)): 0.9 ± 0.3 % of the applied activity
Cell surface fraction ([3]; Time Point 15 min, 0.2 nM): 0.9 ± 0.3 percentage of the total applied activity

retention in the body (remaining PET activity) [4]: highest retention in the body
Bmax [1]: 8.6-9.2
Biodistribution Spleen ([2]; 1 hour p.i.): 0.8 ± 0.1 % I.A./g
Biodistribution Adrenal [2, 5]: 2.3 ± 0.5 % IA/g
Biodistribution Blood [2, 5]: 2.3 ± 0.1 % IA/g
Biodistribution Femur [2, 5]: 10.9 ± 1.1 % IA/g
Biodistribution HT1080.hFAP (FAP-positive tumor) [2, 5]: 12.6 ± 1.5 % IA/g
Biodistribution HT1080.wt (FAP-negative tumor) [2, 5]: 4.5 ± 0.6 % IA/g
Biodistribution Heart [2, 5]: 1.2 ± 0.3 % IA/g
Biodistribution Intestine [2, 5]: 1.7 ± 0.4 % IA/g
Biodistribution Kidney [2, 5]: 2.4 ± 0.3 % IA/g
Biodistribution Liver [2, 5]: 1.5 ± 0.0 % IA/g
Biodistribution Lung [2, 5]: 1.8 ± 0.0 % IA/g
Biodistribution Muscle [2, 5]: 2.6 ± 0.7 % IA/g
Biodistribution Pancreas [2, 5]: 2.5 ± 0.3 % IA/g
Biodistribution Spleen [2, 5]: 0.8 ± 0.1 % IA/g
Biodistribution Stomach [2, 5]: 1.1 ± 0.2 % IA/g
Biodistribution Heart ([2]; 4 hours p.i.): 0.7 ± 0.1 % I.A./g
Biodistribution Liver ([2]; 4 hours p.i.): 1.0 ± 0.2 % I.A./g
Biodistribution Lung ([2]; 4 hours p.i.): 0.8 ± 0.2 % I.A./g
Biodistribution Spleen ([2]; 4 hours p.i.): 0.5 ± 0.1 % I.A./g
Biodistribution Stomach ([2]; 4 hours p.i.): 0.7 ± 0.1 % I.A./g
Biodistribution Adrenal [2, 6]: 1.4 ± 0.2 % IA/g
Biodistribution Blood [2, 6]: 1.2 ± 0.3 % IA/g
Biodistribution Femur [2, 6]: 4.2 ± 1.5 % IA/g
Biodistribution HT1080.hFAP (FAP-positive tumor) [2, 6]: 7.1 ± 3.0 % IA/g
Biodistribution HT1080.wt (FAP-negative tumor) [2, 6]: 2.1 ± 0.5 % IA/g
Biodistribution Heart [2, 6]: 0.7 ± 0.1 % IA/g
Biodistribution Intestine [2, 6]: 1.1 ± 0.4 % IA/g
Biodistribution Kidney [2, 6]: 1.5 ± 0.5 % IA/g
Biodistribution Liver [2, 6]: 1.0 ± 0.2 % IA/g
Biodistribution Lung [2, 6]: 0.8 ± 0.2 % IA/g
Biodistribution Muscle [2, 6]: 1.3 ± 0.1 % IA/g
Biodistribution Pancreas [2, 6]: 1.4 ± 0.2 % IA/g
Biodistribution Spleen [2, 6]: 0.5 ± 0.1 % IA/g
Biodistribution Stomach [2, 6]: 0.7 ± 0.1 % IA/g
Biodistribution HT-1080.wt ([2]; 1 hour p.i.): 4.5 ± 0.6 % I.A./g
Biodistribution HT-1080.wt ([2]; 4 hours p.i.): 2.1 ± 0.5 % I.A./g
Biodistribution HT-1080.hFAP ([2]; 1 hour p.i.): 12.6 ± 1.5 % I.A./g
Biodistribution HT-1080.hFAP ([2]; 4 hours p.i.): 7.1 ± 3.0 % I.A./g
Structure (SMILES): N#C[C@@H]1CC(F)(F)CN1C(=O)CNC(=O)c1ccnc2ccc(NC(=O)CCC(=O)NCCNC(=O)CC[C@H](C(=O)O)N3CCN4CCN(CC3)CC(=O)[O][61Cu][O]C(=O)C4)cc12 [[^61Cu]Cu-NODAGA-F1]
accumulation in tumor and target-positive tissues [2, 7]: high accumulation in FAP-positive (HT-1080.hFAP) tumor and murine-FAP-positive tissues
